Source: a melting point compilation (Tetko et al.; mined from patent text by program, amines drawn as free bases though some values may be those of a salt)

Row | Compound | melting point
1 | CC(C)(C)OC(=O)N=C(N)N(CCc1ccc(OCCC2Oc3ccccc3N(Cc3cccc(Cl)c3)C2=O)cc1)C(=O)OC(C)(C)C (configuration not stated) | 74 to 78 °C
2 | OC(c1nccn1CCc1ccccc1)C1CCNCC1 (configuration not stated) | 145 °C
3 | Cn1c(C(F)(F)F)cc(=O)n(-c2ccc3snc(C4(O)N=C(c5ccccc5)NC4=O)c3c2)c1=O (configuration not stated) | 139 to 141 °C
4 | O=c1[nH]cnn1-c1ccc(C(F)(F)F)cc1 | 221 °C
5 | CC(=O)Nc1nc2c(Oc3cc(-c4ccc(C(F)(F)F)cc4NCc4cncn4C)ncn3)cccc2s1 | 263 to 265 °C
6 | Cn1cc(C2=CCN(CCCN3c4cccc5cccc(c45)S3(=O)=O)CC2)c2ccccc21 | 161 °C
7 | CCCCCC#CCC#CCC#CCC#CCO | 54 to 56 °C
8 | CNCC1Cc2cc(C(F)(F)F)cc(-c3cc(F)ccc3F)c2O1 (configuration not stated) | 138 to 140 °C
9 | COC(=O)c1cc(C(=O)NC(C)(C)CO)c2cc(Cc3ccc(F)cc3)cnc2c1O | 204 to 205 °C
10 | CCCc1c(OCCC(=O)O)ccc(C(C)=O)c1O | 142 to 146 °C
11 | CC(C)C(=O)Nc1ccc(C(=O)Nc2ccccc2[N+](=O)[O-])cc1 | 238 °C
12 | FC(F)(F)c1cccc(N2CCC(N=Cc3ccc[nH]3)=N2)c1 | 144 to 145 °C
13 | CCOC(=O)CC1CCCc2cc(O)c(C(=O)c3ccccc3)cc21 (configuration not stated) | 118 to 120 °C
14 | CCOC(=O)N(CCCOCCOCCCN(C(=O)OCC)C1CC(C)(C)NC(C)(C)C1)C1CC(C)(C)NC(C)(C)C1 | 92 to 93 °C
15 | COc1ccc(Oc2cnccc2N)c2ccccc12 | 126 to 129 °C
16 | CC1=NC(NC(=O)CCc2ccc(Cl)cc2Cl)C(=O)N(C)c2ccccc21 (configuration not stated) | 194 to 195 °C
17 | Cc1ccc(-c2sc(N)c(C(=O)c3ccc(Cl)cc3)c2CN(C2CCCCC2)C2CCCCC2)cc1 | 191 to 194 °C
18 | CS(=O)(=O)C(=C1CN(C(c2ccccc2)c2ccccc2)C1)c1cccc(F)c1 | 210 °C
19 | COC(=O)c1sccc1S(=O)(=O)N=C(N)NNc1nc(C)cc(C)n1 | 213 °C
20 | CC(=O)OCCC1CCCN(C(=O)c2ccc(NC(=O)c3ccccc3Cl)nc2)c2ccc(Cl)cc21 (configuration not stated) | 151 to 153 °C
21 | CCN(CC)C(=O)Cc1ccc(O)c(C(C)C)c1 | 112 to 113 °C
22 | CC(C)(Oc1ccc(CCC(=O)c2ccc(-c3ccc(C(F)(F)F)cc3)s2)c(F)c1F)C(=O)O | 165 to 166 °C
23 | CCN1CC[C@H](NC(=O)c2cc(Cl)c(N)c3c2OCCC3)[C@H](OC)C1 (relative stereo) | 154 °C
24 | CC(=O)OCC=Cc1ccccc1S(N)(=O)=O | 94 to 95 °C
25 | CCCCCCCCCCN1C(=O)C=CC1=O | 48 to 49 °C
26 | COC(CN(C(=O)C(C)C)C(C(=O)O)c1ccccc1)OC (configuration not stated) | 147 to 149 °C

Row | Compound | melting point
27 | O=C(O)c1ccc2c(c1)S(=O)(=O)c1ccccc1C=C2 | 268 to 270 °C
28 | O=C(NCc1ccc2c(c1)OCO2)c1ccc2n1Cc1ccccc1N(C(=O)CSc1ccc(Br)cc1)C2 | 154 to 155 °C
29 | O=C(Nc1ccc2cc(CN3CCCC3)ccc2c1)N1CCC(c2ccc(F)cc2)CC1 | 209 to 211 °C
30 | Fc1cccc(CC[C@H]2CNCCN2)c1 | 95 to 99 °C
31 | Cc1cc(=O)[nH]c(SCc2ccccn2)n1 | 154 to 156 °C
32 | O=C(Oc1cc(OC(=O)c2cc(O)c(O)c(O)c2)c2ccccc2c1)c1cc(O)c(O)c(O)c1 | 163 to 164 °C
33 | N=C(NC(=O)c1ccc2ccccc2c1)c1ccc(N2CC(CN3CCN(CCC(=O)O)CC3)OC2=O)cc1 (configuration not stated) | 80 to 83 °C
34 | O=C1CCC2(CC1)Cc1ccccc1C2 | 91 to 94 °C
35 | CC(C(=O)O)c1ccccc1OS(C)(=O)=O (configuration not stated) | 94 to 96 °C
36 | O=C(c1ccc(-n2nc(-c3ccccc3O)nc2-c2ccccc2O)cc1)N1CCOCC1 | 157 to 160 °C
37 | CCn1nc2c(cc1=O)CCSc1sc(Br)cc1-2 | 149 to 151 °C
38 | COc1ccc(Nc2nc(=O)cc(N)n2-c2ccccc2)cc1 | 213 to 216 °C
39 | CNC(=O)n1cc(F)cnc1=O | 166 °C
40 | Cc1ccc(C(=O)NNc2ccc(NC(=S)Nc3ccccc3)cc2)cc1 | 186 to 187 °C
41 | COC(=O)COc1ccc2cc(-c3csc(-c4ccccc4)n3)ccc2c1Br | 156 to 159 °C
42 | NC(=O)C(OCc1ccc(Cl)cc1)(C(F)(F)F)C(F)(F)F | 94 to 95 °C
43 | CC1(C)Cc2cc(Cl)ccc2C=[N+]1[O-] | 64.5 to 66.5 °C
44 | C=CC(=O)Oc1ccc(C(C)(c2ccc(OC(=O)C=C)cc2)c2ccc(OC(=O)C=C)cc2)cc1 | 130 °C
45 | O=C(O)C1CCc2onc(-c3ccc(Cl)cc3)c2C1 (configuration not stated) | 203 to 205 °C
46 | NC(=O)N(O)Cc1ccsc1 | 129 to 131 °C
47 | Cc1cc(-c2ccc(C(F)(F)F)cc2)cnc1N | 74 °C
48 | COc1cc(N2CCC(N3CCCOCC3)CC2)ccc1Nc1ncc2ccc(-c3ccccc3OC)n2n1 | 75 to 82 °C
49 | O=S(Sc1ccccc1)c1ccccc1 (configuration not stated) | 69 to 70 °C
50 | Nc1cc(Br)cc(OCc2ccccc2)c1NC(=O)C1CC1 | 207 to 208 °C
51 | COC(=O)CCCC(=N)Nc1[nH]c2ccccc2c1C(=O)OC | 95 °C
52 | OC(CNCCCc1ccccc1)COc1cccc2[nH]ncc12 (configuration not stated) | 122 to 124 °C

Row | Compound | melting point
53 | Nc1cccc2c1=NC(=O)C=2c1ccccc1 | 226 to 230 °C
54 | CC1Nc2ccccc2N2CCc3cccc1c32 (configuration not stated) | 127 to 134 °C
55 | CCOC(=O)C(=O)Nc1nccs1 | 174 to 177 °C
56 | O=C(CNCCO)Nc1cccc([N+](=O)[O-])c1 | 145 to 147 °C
57 | N#Cc1cc(C(=O)NNC(=O)c2occc2-c2ccccc2O)ccc1O | 135 to 140 °C
58 | CC(C)(C)OC(=O)Nc1ccc(C#Cc2ccccc2F)cc1N | 137 to 139 °C
59 | C/C(=C(\C#N)C(=S)/N=C/N(C)C)N1CCCN(c2ccc(C(F)(F)F)cc2)CC1 | 251 to 253 °C
60 | CCOc1ccc2[nH]c(=O)n(-c3ccc(OC)cc3)c2c1 | 98 °C
61 | NC(=O)c1cc2cc(Br)ccc2o1 | 210 to 213 °C
62 | N#Cc1cnc2c(Br)cccc2c1O | > 260 °C
63 | CCN(CC)c1ccc2c(c1)OC(=O)C(C)(C#Cc1ccccc1)C2 (configuration not stated) | 142 to 144 °C
64 | CN1N=CC(=CNCc2ccc(F)cc2F)C1=O | 181 to 182 °C
65 | CCCCn1c(=O)c(N)c(-c2cccc(OC)c2)c2cccnc21 | 138 to 141 °C
66 | Cc1ccc(-c2ncnc(-c3cccc(C(=O)O)c3)n2)cc1 | 298 to 300 °C
67 | Cc1oc(-c2ccccc2)nc1COc1ccc(CCc2oc(-c3ccccc3)nc2CCC(=O)O)cc1 | 110 to 111 °C
68 | COc1ccc2cc(-c3ccncn3)ccc2n1 | 164 to 165 °C
69 | Cc1cccc(C)c1NC(N)=NN | 192 to 193 °C
70 | C=CCn1c(C)nc(N2CCc3ccccc3CC2)c(C#N)c1=O | 141 to 144 °C
71 | CCCCc1c2c(nc3c1CCCC3)CCCC2 | 35 to 37 °C
72 | NCC1CCN(c2ncc3ncnc(Nc4ccc(F)c(Cl)c4)c3n2)CC1 | 165 °C
73 | COc1ccnc(C(=O)Nc2ccc(Oc3ccc(C(F)(F)F)cc3)cc2)c1O | 91 to 93 °C
74 | CC(=O)OCC(=O)C1=CCC2C3CCC4=CC(=O)C=CC4(C)C34OC4CC12C (configuration not stated) | 164 to 165 °C
75 | Cc1cc([N+](=O)[O-])c2[nH]ccc(=O)c2c1 | 209 to 212 °C
76 | Cc1nc2c(C=Cc3ccccc3)cccn2c1N=O | 158 to 160 °C
77 | COc1ccc(C#N)c(Cl)c1OC(C)=O | 97 to 99 °C
78 | CCC(=NNC(=O)c1cccc(C(F)(F)F)c1)c1cccnc1 | 119 °C

Row | Compound | melting point
79 | CCOc1cc2c(Nc3cc(OC)c(Cl)cc3Cl)c(C#N)cnc2cc1F | 184 to 186 °C
80 | CCOC(=O)c1c(N)c2c(n1C)N=CCN2 | 119 to 121 °C
81 | COC(=O)c1ccc(Cl)nc1OC | 68 to 69 °C
82 | COc1ccc(C=CC(=O)Nc2ccc(C)cc2C(=O)O)cc1OC | 190 to 191 °C
83 | O=c1[nH]c2cc(C(F)(F)F)ccc2n1-c1cc(C(F)(F)F)cc([N+](=O)[O-])c1O | > 360 °C
84 | COc1cc(C(=O)O)ccc1Cc1cn(C)c2ccc(C(=O)NCCC(C)C)cc12 | 190 to 191 °C
85 | Cc1cccc(-c2csc(N3CCN(C(=O)Nc4cccnc4)CC3)n2)c1 | 157 to 158 °C
86 | CCS(=O)(=O)c1cc(C(=O)Cl)c(OC)cc1Cl | 115 to 117 °C
87 | CSc1nc(NCc2ccc(-c3ccsc3)cc2)n2ncc(C(C)C)c2n1 | 141 to 143 °C
88 | COc1cc(Cl)c(C(=O)c2ccccc2F)c(OC)c1 | 88 to 92 °C
89 | O=C(c1ccc(F)cc1)c1ccnc(Cl)c1 | 60 to 63 °C
90 | COC(=O)C[C@H](O)C[C@H](O)C=Cc1c(-c2ccc(F)cc2)c(-c2ccccc2)c(C(=O)NCc2ccc(F)cc2)n1C(C)C | 68 to 69 °C
91 | CC(C)(C)OC(=O)NN(C(=O)OC(C)(C)C)c1ccc(OCC(F)(F)F)cc1 | 140 to 141 °C
92 | COc1cccc(-c2ccc3c(C(=O)Nc4cccnc4)c(OC)ccc3c2)c1 | 154 °C
93 | O=C(O)c1cc(F)c(C(F)(F)F)cc1[N+](=O)[O-] | 142 to 145 °C
94 | COc1ccc(CCNS(=O)(=O)Cc2ccc3[nH]cc(CC#N)c3c2)cc1 | 134 to 135 °C
95 | Cc1ccc(-c2c(C(=O)NCc3cc(C(F)(F)F)cc(C(F)(F)F)c3)n(CCO)c(=O)c3ncccc23)cc1 | 123 to 125 °C
96 | CCCCN(CCCC)c1nc(-c2ccc(OC)cc2)nc2sc(C#N)c(C)c12 | 96 to 98 °C
97 | Nc1n[nH]c2cc(Br)ccc12 | 222 to 225 °C
98 | C[C@H](CO)NC1=NS(=O)(=O)c2sc(Cl)cc2N1 | 203 to 204 °C
99 | Cc1cc2cc(NC(=O)NC34CC5CC(CC(C5)C3)C4)ccc2[nH]1 | 146 to 152 °C
100 | Cc1nc2cc3c(cc2s1)C1(CO3)C(=O)N(Cc2ccccn2)c2ccccc21 (configuration not stated) | 249 to 250 °C
101 | c1ccc(C(CCOc2ccc(CCC3=NCCO3)cc2)(c2ccccc2)c2ccccc2)cc1 | 130 to 131 °C
102 | Cc1ccc(S(=O)(=O)NC(=O)OCCc2ccc(-n3c(CCC(=O)N4CCCC4)nc4cc(C(F)(F)F)c(Cl)cc43)cc2)cc1 | 98 to 105 °C
